Laboratory results from publication PMC3567251 (Biochemistry, 2012).
Where “and” joins values, the source holds several entries; their conditions need not be identical. Identical values can stand only once. Entries after “also recorded” stand apart in the source; their conditions may differ. Like-named read-outs stand apart in the source and are kept apart here.

Legend:
PfADA [1] = details: substrate; ref Ting et al. [13]; cited from earlier work
PaMTADA [2] = type: biochemical, Pseudomonas aeruginosa; details: times higher than PfADA
PaMTADA [3] = molecular target: T1, PaMTADA (Pseudomonas aeruginosa, UniProt Q9HZ64); type: biochemical
bovine ADA = details: result in words; cited from earlier work
human ADA [4] = details: cited from earlier work
human ADA [5] = details: cited from earlier work; for inhibition of human ADA: result in words
PfADA [6] = details: cited from earlier work
PaMTADA [7] = molecular target: T2, PaMTADA (Pseudomonas aeruginosa, UniProt Q9HZ64); assay: Inhibition of PaMTADA activity in cell lysates; type: biochemical, P. aeruginosa PAO1; details: cell lysate, 50 nM inhibitor
T2 sequence (Q9HZ64 1-444): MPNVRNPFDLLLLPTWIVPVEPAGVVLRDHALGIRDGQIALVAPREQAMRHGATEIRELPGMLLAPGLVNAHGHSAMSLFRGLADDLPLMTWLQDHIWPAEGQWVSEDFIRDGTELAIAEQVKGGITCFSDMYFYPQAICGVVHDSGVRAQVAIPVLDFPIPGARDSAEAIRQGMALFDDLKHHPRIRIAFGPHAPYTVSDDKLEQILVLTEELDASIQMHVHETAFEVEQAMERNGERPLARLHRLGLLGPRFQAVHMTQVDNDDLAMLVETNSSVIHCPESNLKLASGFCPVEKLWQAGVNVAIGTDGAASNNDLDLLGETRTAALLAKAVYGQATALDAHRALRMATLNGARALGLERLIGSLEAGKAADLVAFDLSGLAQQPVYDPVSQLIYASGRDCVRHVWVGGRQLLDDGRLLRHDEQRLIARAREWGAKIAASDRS

[8] = molecular target: T3, cellular PaMTADA activity (Pseudomonas aeruginosa, UniProt Q9HZ64); assay: Inhibition of cellular PaMTADA; type: cell-based, P. aeruginosa PAO1
T3 sequence (Q9HZ64 1-444): T2 sequence (Q9HZ64 1-444)

P. aeruginosa PAO1 = assay: Growth of P. aeruginosa PAO1 with or without MTCF; type: cell-based; details: up to 1 μM, 36 hours, 37 °C
PfADA [9] = assay: Inhibition of PfADA; type: biochemical, Plasmodium falciparum; details: times weaker than CF
PaMTADA [10] = molecular target: T1, PaMTADA; type: biochemical; details: times weaker than MTDCF
[11] = substrate, ref Tyler et al. [16]
[12] = read-out: Ki* from slow-onset inhibition, Ki* values
[13] = equilibrium dissociation constant

5′-methylthioadenosine [MTA]
Km (PfADA [1]): 170 ± 20 µM
kcat (PfADA [1]): 15.0 ± 0.9 s⁻¹
catalytic efficiency of PaMTADA on MTA relative to PfADA (PaMTADA [2]): 160 times
catalytic efficiency (kcat/Km) for MTA relative to adenosine (PaMTADA [3]; MTA over adenosine): 40 fold
Km (PaMTADA [3]; substrate, 25 °C, pH 7.4): 1.5 ± 0.3 µM
kcat (PaMTADA [3]; substrate, 25 °C, pH 7.4): 24.6 s⁻¹ and 24.6 ± 0.8 s⁻¹
use as substrate by bovine ADA (bovine ADA): do not utilize
use as substrate by human ADA (human ADA [4]; result in words): do not utilize
kcat (human ADA [4]; [11]): < 0.02 s⁻¹

OC[C@H]1O[C@@H](n2cnc3c2N=CNC[C@H]3O)[C@H](O)[C@@H]1O [Coformycin (CF), (2R,3R,4S,5R)-2-((R)-8-hydroxy-7,8-dihydroimidazo[4,5-d][1,3]diazepin-3(6H)-yl)-5-(hydroxymethyl)tetrahydrofuran-3,4-diol, reference compound]
Ki (human ADA [5]; [12]): 0.11 ± 0.02 nM
Ki (PfADA [6]; [12]): 0.08 ± 0.02 nM

CSC[C@H]1O[C@@H](n2cnc3c2N=CNC[C@H]3O)[C@H](O)[C@@H]1O [MTCF, 5′-methylthiocoformycin]
Ki (human ADA [5]; [13]): > 10000 nM
inhibition of human ADA (human ADA [5]): no significant inhibition; also recorded: no inhibitory effect; also recorded: no significant inhibitory effects
degradation of MTA (PaMTADA [7]): completely blocked
PaMTADA activity ([8]; 500 nM MTCF in LB medium plus 100 nM MTCF added to cell lysate): All PaMTADA activity was inhibited
concentration of maximal inhibition ([8]; MTCF in LB medium): 10 nM
Ki (PfADA [6]; [12]): 0.4 ± 0.1 nM
effect on cell growth based on OD600 (P. aeruginosa PAO1): no effect

CSC[C@H]1O[C@@H](n2cnc3c2N=CNC[C@H]3O)C[C@@H]1O [MTDCF, 5′-methylthio-2′-deoxycoformycin]
Ki (human ADA [5]; [13]): > 10000 nM
inhibition of human ADA (human ADA [5]): no inhibitory effect
Ki (PfADA [6]; [12]): 0.7 ± 0.2 nM
binding affinity for PfADA relative to CF (PfADA [9]): 9 times

O[C@@H]1CNC=Nc2c1ncn2[C@H]1C[C@H](O)[C@@H](CSc2ccccc2)O1 [PhTDCF, 5′-phenylthio-2′-deoxycoformycin]
Ki (PfADA [6]; [13]): 60 ± 10 nM

CCCSC[C@H]1O[C@@H](n2cnc3c2N=CNC[C@H]3O)C[C@@H]1O [PrTDCF, 5′-propylthio-2′-deoxycoformycin]
Ki (human ADA [5]; [13]): > 10000 nM
binding to PaMTADA relative to MTDCF (PaMTADA [10]): 8 times
Ki (PfADA [6]; [13]): 12 ± 1 nM
binding affinity for PfADA relative to CF (PfADA [9]): 150 times

Nc1ncnc2c1ncn2[C@@H]1O[C@H](CO)[C@@H](O)[C@H]1O [adenosine]
kcat (PfADA [1]): 1.8 ± 0.1 s⁻¹
kcat (PaMTADA [3]; substrate, 25 °C, pH 7.4): 17 ± 1 s⁻¹
Km (human ADA [4]; [11]): 22 ± 3 µM
kcat (human ADA [4]; [11]): 36 ± 1 s⁻¹
